US5739274A, “Active component of parathyroid hypertensive factor” (CV Technologies, Inc., priority 1995, dated 1998)

Assays:
L-type Ca2+ channel = biological target: T1, L-type Ca2+ channel (Rattus norvegicus, UniProt P22002); assay: Ca2+ channel study, whole cell patch clamp in single VSMC; type: cell-based; details: IBMX applied after FMOC-PHF
T1 construct: single VSMC isolated form rat tail artery by using the whole cell version of the patch clamp technique; endogenous in cells; host or cells: freshly isolated vascular smooth muscle cells of rat tail artery
T1 sequence (P22002 whole entry): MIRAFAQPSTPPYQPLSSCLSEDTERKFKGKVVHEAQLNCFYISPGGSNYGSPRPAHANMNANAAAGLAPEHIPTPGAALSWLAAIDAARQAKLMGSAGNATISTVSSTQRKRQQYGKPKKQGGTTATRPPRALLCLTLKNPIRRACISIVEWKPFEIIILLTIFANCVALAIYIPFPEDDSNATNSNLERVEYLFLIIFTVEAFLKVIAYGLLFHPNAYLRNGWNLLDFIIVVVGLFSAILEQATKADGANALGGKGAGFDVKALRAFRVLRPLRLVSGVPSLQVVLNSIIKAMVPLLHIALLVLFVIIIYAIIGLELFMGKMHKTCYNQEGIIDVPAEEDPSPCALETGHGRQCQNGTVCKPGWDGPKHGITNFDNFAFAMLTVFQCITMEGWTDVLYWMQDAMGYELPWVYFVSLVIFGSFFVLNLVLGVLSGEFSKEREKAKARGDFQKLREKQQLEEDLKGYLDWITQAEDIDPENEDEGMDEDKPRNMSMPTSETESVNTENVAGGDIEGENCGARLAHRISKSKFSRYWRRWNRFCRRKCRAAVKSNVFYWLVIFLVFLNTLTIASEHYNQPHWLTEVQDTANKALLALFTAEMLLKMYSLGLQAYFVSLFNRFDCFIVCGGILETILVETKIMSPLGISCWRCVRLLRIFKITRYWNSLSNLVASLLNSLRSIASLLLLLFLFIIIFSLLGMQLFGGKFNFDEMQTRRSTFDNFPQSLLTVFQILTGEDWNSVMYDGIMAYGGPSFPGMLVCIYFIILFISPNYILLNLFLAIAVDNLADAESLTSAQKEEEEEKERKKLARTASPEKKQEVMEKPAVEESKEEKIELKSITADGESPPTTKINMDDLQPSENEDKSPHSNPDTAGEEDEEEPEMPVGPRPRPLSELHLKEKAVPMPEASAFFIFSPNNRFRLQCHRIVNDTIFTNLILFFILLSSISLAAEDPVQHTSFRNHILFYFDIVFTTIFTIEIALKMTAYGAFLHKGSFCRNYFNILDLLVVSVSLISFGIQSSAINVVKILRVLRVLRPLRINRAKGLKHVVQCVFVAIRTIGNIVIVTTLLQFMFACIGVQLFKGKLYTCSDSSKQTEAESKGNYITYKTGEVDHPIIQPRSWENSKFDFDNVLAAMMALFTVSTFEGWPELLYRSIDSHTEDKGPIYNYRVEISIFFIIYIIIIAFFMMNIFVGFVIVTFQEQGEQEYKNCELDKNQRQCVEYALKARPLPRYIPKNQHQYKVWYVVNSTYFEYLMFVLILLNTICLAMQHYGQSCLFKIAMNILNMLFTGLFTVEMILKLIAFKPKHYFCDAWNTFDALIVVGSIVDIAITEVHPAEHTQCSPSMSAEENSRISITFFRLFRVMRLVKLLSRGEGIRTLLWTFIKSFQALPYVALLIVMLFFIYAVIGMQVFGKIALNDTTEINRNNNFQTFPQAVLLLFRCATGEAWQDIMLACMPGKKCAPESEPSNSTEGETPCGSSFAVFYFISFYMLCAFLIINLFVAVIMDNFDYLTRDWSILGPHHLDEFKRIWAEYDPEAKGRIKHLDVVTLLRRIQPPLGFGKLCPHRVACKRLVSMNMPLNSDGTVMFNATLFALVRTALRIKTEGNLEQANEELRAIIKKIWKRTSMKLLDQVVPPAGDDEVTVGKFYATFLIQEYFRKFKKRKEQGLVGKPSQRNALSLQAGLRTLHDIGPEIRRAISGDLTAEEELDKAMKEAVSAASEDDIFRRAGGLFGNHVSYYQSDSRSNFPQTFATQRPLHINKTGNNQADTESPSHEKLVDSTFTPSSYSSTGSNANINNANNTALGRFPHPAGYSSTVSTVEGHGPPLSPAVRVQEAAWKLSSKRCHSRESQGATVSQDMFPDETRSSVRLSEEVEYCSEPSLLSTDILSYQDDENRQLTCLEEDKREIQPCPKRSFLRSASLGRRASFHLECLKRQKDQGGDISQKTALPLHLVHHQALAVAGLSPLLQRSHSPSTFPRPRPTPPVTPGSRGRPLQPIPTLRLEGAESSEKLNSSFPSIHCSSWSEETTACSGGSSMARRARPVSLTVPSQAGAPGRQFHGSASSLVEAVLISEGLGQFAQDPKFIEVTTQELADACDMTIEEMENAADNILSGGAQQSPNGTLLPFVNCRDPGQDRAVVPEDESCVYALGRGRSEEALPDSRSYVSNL
T1 sequence (P54290 25-944 partner limits assumed): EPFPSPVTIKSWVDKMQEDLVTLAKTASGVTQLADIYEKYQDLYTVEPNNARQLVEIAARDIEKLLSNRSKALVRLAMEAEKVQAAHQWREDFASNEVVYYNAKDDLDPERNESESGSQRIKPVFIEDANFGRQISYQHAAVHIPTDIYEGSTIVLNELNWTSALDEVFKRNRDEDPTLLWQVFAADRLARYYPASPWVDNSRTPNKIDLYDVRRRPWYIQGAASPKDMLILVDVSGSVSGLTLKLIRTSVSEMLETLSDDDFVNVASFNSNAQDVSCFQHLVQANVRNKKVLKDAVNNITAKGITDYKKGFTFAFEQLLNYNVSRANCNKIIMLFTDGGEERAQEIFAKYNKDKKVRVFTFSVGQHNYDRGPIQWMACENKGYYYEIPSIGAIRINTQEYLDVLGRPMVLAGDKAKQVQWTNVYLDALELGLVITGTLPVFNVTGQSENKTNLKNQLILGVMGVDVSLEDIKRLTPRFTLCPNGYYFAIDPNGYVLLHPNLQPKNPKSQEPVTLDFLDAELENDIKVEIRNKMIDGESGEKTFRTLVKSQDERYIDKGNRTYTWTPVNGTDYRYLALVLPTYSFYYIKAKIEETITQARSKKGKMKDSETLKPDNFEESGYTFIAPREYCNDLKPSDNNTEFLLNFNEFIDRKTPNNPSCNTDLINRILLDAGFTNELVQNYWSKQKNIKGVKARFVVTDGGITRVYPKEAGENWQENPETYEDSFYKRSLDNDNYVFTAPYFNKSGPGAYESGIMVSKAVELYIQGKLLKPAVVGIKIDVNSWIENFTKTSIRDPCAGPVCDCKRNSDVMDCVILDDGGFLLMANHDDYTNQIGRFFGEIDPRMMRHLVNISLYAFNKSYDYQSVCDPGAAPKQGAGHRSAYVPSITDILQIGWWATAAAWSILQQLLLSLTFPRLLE
T1 sequence (P54290 945-1091 partner limits assumed): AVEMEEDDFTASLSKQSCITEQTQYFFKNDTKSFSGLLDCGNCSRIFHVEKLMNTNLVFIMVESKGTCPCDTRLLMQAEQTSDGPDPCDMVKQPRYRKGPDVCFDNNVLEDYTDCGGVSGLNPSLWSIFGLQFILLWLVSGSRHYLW
T1 sequence (P54287 whole entry partner): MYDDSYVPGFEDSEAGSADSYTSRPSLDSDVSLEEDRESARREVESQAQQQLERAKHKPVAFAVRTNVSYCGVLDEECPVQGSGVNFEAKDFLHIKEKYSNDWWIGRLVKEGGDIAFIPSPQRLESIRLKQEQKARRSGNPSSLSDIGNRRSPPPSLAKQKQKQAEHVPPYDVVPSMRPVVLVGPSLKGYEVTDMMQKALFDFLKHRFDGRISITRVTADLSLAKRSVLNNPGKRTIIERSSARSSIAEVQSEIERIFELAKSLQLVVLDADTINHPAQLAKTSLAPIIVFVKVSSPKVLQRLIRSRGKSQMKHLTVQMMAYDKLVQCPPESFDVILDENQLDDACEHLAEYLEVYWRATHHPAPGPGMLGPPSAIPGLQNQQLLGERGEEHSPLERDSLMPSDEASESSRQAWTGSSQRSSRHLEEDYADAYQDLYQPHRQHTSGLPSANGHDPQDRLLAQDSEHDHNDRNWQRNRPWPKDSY
Method: Ca^2+ channel activity was determined in single VSMC isolated form rat tail artery by using the whole cell version of the patch clamp technique (Hamill et al., 1981). Whole cell Ca^2+ current measurements were carried out by using an Axopatch-1B patch clamp amplifier (Axon Instruments). Patch micropipettes were pulled from borosilicate thin wall glass capillary tubes (OD 1.2 mm, ID 0.9 mm, FHS, Brunswick, Maine, USA) with a two stage micropipette puller (Narishige, PP83, Japan). The micropipettes were fire polished using a microforge (Leitz, Wetzlar, Germany). The tip diameter was approximately 1 μm with a resistance of 2-8 Mega Ohms. The cell attached to the bottom of a 3 cm Petri dish and was bathed in the medium containing 110 mM Tris, 5 mM CsCl, 20 mM HEPES, 30 mM glucose, 20 mM BaCl2, and 0.5 μM TTX. The polished pipette filled with a solution containing 75 mM Cs2 -aspartate, 10 mM EGTA, 2 mM ATP, 5 mM MgCl2, 5 mM K-pyruvate, 5 mM K-succinate, 25 mM glucose, 15 mM HEPES, 5 mM creatine phosphate-Na2, and 50 units/ml creatine kinase was placed against the cell membrane using a Narishige hydraulic micromanipulator. Gentle suction was applied via a tubing attached to the pipette holder. […] The currents were monitored using a digital oscilloscope (Nicolet Instrument Co., Madison, Wis., U.S.A.) and filtered at 3 KHz with a low pass filter (Axon Instruments, Foster City, Calif., U.S.A.). […]

rat tail artery = assay: Blood vessel tension measurement, norepinephrine-induced tension in helical strips; type: cell-based; details: 40 mins incubation before second NE doses
Method: The method was essentially similar to the one described by Pang, et al. (1980). Sprague-Dawley rats of either sex were anesthetized with pentobarbital (50 mg/kg) and the tail artery or aorta were isolated and removed and then placed in KHS buffer (115 mM NaCl, 5 mM KCl, 2.1 mM CaCl2, 1.2 mM MgSO4, 1.2 mM NaH2 PO4, 25 mM NaHCO3, and 11 mM glucose) oxygenated with 95% O2, 5% CO2. The vessels were cut helically and strips of approximately 1.5 cm were secured in a Sawyer-Bartlestone chamber containing KHS. The force development of the helical strips was measured with a Grass FT 0.03 force displacement transducer and recorded on a Grass Model 79D polygraph. Isolated tail artery helical strips were equilibrated for 1 hour prior to addition of any vasoconstricting agents. The strips were preloaded with a resting tension of 0.7 g and incubated at 37° C. (Pang et al., 1985). In all cases, the responsiveness of strips was first tested by adding 60 mM KCl and only responsive tissue was used in experiments. There were two series of experiments.
Two consecutive dose responses to NE in tension development with 1 hour interval were compared. The tissue was washed out after adding first accumulated doses of NE and incubated in normal KHS buffer for 20 mins. The control solvent or testing substances (PHF or LP compounds) were then applied and incubated for another 40 mins. […]

Na+ K+ ATPase = Na+ K+ ATPase activity as ouabain-sensitive 86Rb uptake in rat tail artery; type: cell-based
Method: Na^+ K^+ ATPase activity was measured as the ouabain-sensitive ^86 Rb uptake in rat tail artery using the method of Deth et al. Briefly, male Sprague-Dawley rats weighing 300 to 400 g were sacrificed by pentobarbital overdose, and the tail arteries removed and cut into strips. The strips were rinsed in ice-cold Krebs solution (composition: NaCl, 117 mM; KCl, 5 mM; NaHCO3, 27 mM, NaH2 PO4, 1 mM, MgSO4, 1.2 mM, CaCl2, 1.25 mM, glucose 11.0 mM) and incubated in oxygenated (95% O2, 5% CO2) Krebs buffer at 37° C. for 2 hours. For the final 30 minutes, Krebs solution with no KCl and 122 mM NaCl was used to sodium-load the tissues. Following this incubation, the strips were transferred to tubes containing Krebs buffer and 1 μCi of ^86 Rb, giving a final […] concentration of 5 mM. Various incubation media consisting of the above-described incubation solution plus 30% SHR plasma (Rb concentration kept constant in all cases) plus 1 mM ouabain and incubation plus 30% plasma plus 1 mM ouabain. Strips were incubated in the respective solutions for 18 minutes, then rinsed in four changes of ice-cold Krebs solution, blotted, weighed and counted in a gamma counter. The effect of the various incubations on ^86 Rb uptake was analyzed by ANOVA using the Student-Neuman-Keuuls test for post-hoc comparisons. All results are expressed as mean±SD.

SD rats = assay: Blood pressure bioassay, bolus injection into anesthetized normotensive SD rats; type: in vivo; details: normotensive rat, as in Example 1
Method: SD rats were anesthetized using Na pentobarbital, (50 mg/kg, i.p.) and catheters were inserted in the jugular vein for injection of plasma and drugs and in the carotid artery for measurement of b.p.
The chloroform methanol extract of SHR plasma was redissolved in saline and administered by bolus injection.

[1] = system: CaM (calmodulin)-Dependent PDE; assay: Activation of CaM-dependent PDE (cGMP-PDE activity); type: biochemical
Method: The measurement of cGMP-PDE activity is based on the conversion of [^3 H]cGMP into [^3 H]GMP and its subsequent hydrolysis by snake venom into [^3 H]Guanosine (Wallace, et al., 1983; Wells, et al., 1975). The testing substance was added to a mixture containing 60 mM TES, 3 mM MgCl2, 0.8 mg/ml BSA, 25 μM EGTA, 50 uM CaCl2, 1 mM DTT, 0.5 μM cGMP and [^3 H]-cGMP (10-15×10^3 cpm) at a final pH of 7.5 for a total volume of 200 μl. The reaction was started by the addition of a fixed quantity of CaM-deficient PDE (Sigma Chemical Co., St. Louis, Mo.). Incubation carried out for 15 mins at 30° C., was terminated by boiling for 5 mins. The second reaction was initiated by the addition of 20 μl (10 mg/ml) of snake venom (Crotalus atrox). After 10 mins., the incubation was stopped with 700 μl of a second termination medium containing 0.1 mM guanosine. The total incubation mixture was then applied onto a column of QAE-Sephadex A-25 (formate form) to separate labeled nucleotides from the labeled nucleosides formed. The resin was eluted with 4 ml of 20 mM ammonium formate (pH 6.5), and the radioactivity of the eluate containing [^3 H]guanosine was determined in a liquid scintillation counter. A standard curve of PDE stimulation by CaM was obtained by the addition of different concentrations of purified bovine heart CaM (Sigma) (0.1-200 ng/tube). […]

[2] = system: vascular smooth muscle cells isolated from rat tail artery; assay: Intracellular calcium determination (fura-2); type: cell-based; details: 45 mins incubation before KCl; 30 mM KCl for pure PHF, 15 mM KCl for FMOC-PHF
Method: All studies were performed in vascular smooth muscle cells isolated from Sprague Dawley (SD) rat tail artery as described in Wang, et al. (Wang, et al. 1989) with modification. Male SD rats (100-200 g body weight) were anaesthetized with sodium pentobarbital (65 mg/kg body weight intraperitoneally) and the tail artery dissected out and immersed in cold Ca and Mg free Hanks' balanced salt solution (HBSS, Gibco). The blood was washed off from the artery and the connective tissue was then removed. Using a dissecting microscope inside a laminar flow hood, the artery was cut into pieces of about 1.5 cm and placed in 4° C. Ca free HBSS for 30 minutes. […]
Primary cultured vascular smooth muscle cells were incubated for 45 minutes in DMEM containing 5 μM fura-2 acetoxymethyl ester (Molecular Probes, INC.) at room temperature. […] After about 5 min, the coverslip with attached cells was placed in a Sykes-Moore chamber of 1-ml volume on the stage of an inverted microscope, and fluorescence measurements were made with a Fluoroplex III sepctrofluorometer (Tracor Northern). […] R is the ratio of fluorescence in the sample excited at […] which represents intracellular free calcium concentration. […]
The monolayer cells in 1 mM Ca^2+ 5K buffer were challenged by testing substances and the change of R was recorded for a certain period of time. […]

In the case of CC(C)Cn1c(=O)n(C)c(=O)c2[nH]cnc21 [IBMX], the “effect on calcium channel current increased by FMOC-PHF” value (L-type Ca2+ channel) is reported as “reversal”.
For Lysophosphatidyl inositol, the “effect on norepinephrine induced tension development” value (rat tail artery) was “potentiations of norepinephrine induced tension”, the “increase in 86Rb uptake” value (Na+ K+ ATPase; 600 micromolar, p<0.05) was 31% and the “hypertensive response (blood pressure in normotensive rats)” value (SD rats) was “delayed, sustained increase in blood pressure”.
For Lysophosphatidyl serine, the “increase in 86Rb uptake” value (Na+ K+ ATPase; 30 micromolar, p<0.01) was 46%, the “effect on phosphodiesterase (PDE) activity” value [1] was “stimulated PDE activity” and the “hypertensive response (blood pressure in normotensive rats)” value (SD rats) was “delayed sustained increase in blood pressure”.
lysophosphatidyl choline [LPC] was tested, and the “effect on intracellular calcium ([Ca2+]i increment induced by KCl)” value [2] was “significantly augments the increase in intracellular calcium induced by KCl”.
